Test results as given in US5817634A, “Methods of treating diabetes mellitus and clycogen storage disease” (The UAB Research Foundation, priority 1994, dated 1998).
Entries after “also recorded” stand apart in the source; their conditions may differ. Blank lines part the entries; values can stand above or below the molecule they belong to.

Experiments:
glycogenin = target: T1, glycogenin (Bos taurus, UniProt Q29RN2); test: Glycogenin assay: transfer of glucose or xylose from the UDP-sugar to exogenous glycoside acceptors; type: biochemical, beef; settings: for inhibition of transfer of [3H]glucose to DBM by glycogenin: inhibitor 0.1-0.5 mM, acceptor DBM; for activity as glucose acceptor substrate for glycogenin: UDP-[3H]glucose donor, 60 min at 37° C.
T1 construct: chromatography of a 105,000×g supernatant from a homogenate of beef kidney on DE-53 cellulose; tissue local slaughter house; host or cells: beef kidney
T1 sequence (Q29RN2 1-333): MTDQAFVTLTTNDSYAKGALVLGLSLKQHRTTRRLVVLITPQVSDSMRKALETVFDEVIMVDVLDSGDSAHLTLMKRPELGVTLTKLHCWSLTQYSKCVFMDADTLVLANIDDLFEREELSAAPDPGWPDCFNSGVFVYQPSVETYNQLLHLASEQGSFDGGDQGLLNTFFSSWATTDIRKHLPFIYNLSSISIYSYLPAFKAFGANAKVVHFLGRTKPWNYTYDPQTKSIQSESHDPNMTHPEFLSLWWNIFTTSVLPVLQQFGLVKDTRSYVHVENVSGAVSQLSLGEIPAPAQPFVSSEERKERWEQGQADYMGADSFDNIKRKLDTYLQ
From the text: Glycogenin is a self-glycosylating glycosyltransferase which can be obtained from muscle and which can also be obtained from rat and beef kidney. The enzyme is capable of transferring glucose and xylose from the respective UDP-sugar substrates to itself and also of transferring these sugars to exogenous acceptors, such as dodecyl-β-D-maltoside, tetradecyl-β-D-maltoside, octyl-β-D-maltoside, octyl-α-D-glucoside and other glycosides, as described herein.
Fresh beef kidney was purchased from a local slaughter house. Purification of glycogenin from kidney involves the following steps: chromatography of a 105,000×g supernatant from a homogenate of beef kidney on DE-53 cellulose, chromatofocusing and chromatography on a column of UDP-glucuronic acid-agarose, which was eluted with cytidine 5'-diphosphate(CDP). […] The protein concentration of the affinity purified enzyme was determined to be 10 μg/ml with the Quantigold protein reagent (Diversified Biotech, Newton Centre, Mass.).
An appropriate sample of UDP-[^3 H] glucose or UDP-[^3 H] xylose (supplied in 70% ethanol by the manufacturer) was evaporated to dryness with a gentle stream of filtered air and dissolved in 50 mM Tris Cl, pH 7.4/75 mM BAL/1.5 mM ATP. […] After incubation for 60 min at 37° C. product formation was measured by either of the two procedures described below.
Product isolation by precipitation with trichloracetic acid. After completed incubation, 1% bovine serum albumin (50 μl) and 10% trichloracetic acid/4% phosphotungstic acid (150 μl) were added, and the mixture was vortexed and kept on ice for at least 15 min. The precipitate was sedimented by centrifugation in a microfuge and washed three times with 5% trichloroacetic acid. The bottom of the tube, containing the pellet, was clipped off with a dog nail clipper and dropped into a 6 ml scintillation vial, the protein was dissolved in 250 μl of 2M NaOH, and, after neutralization with 250 μl of 2M HCl, 4.5 ml of Ecolume was added, and the radioactivity was measured.
Product isolation by adsorption to SepPak C18 cartridges. The reaction mixture was brought to a, volume of 0.5 ml by addition of water and was heated to 100° C. for 1 min. After cooling to room temperature, the mixture was centrifuged, and a 10 μl aliquot was removed for measurement of total radioactivity. The remaining 490 μl was applied with the use of a 10 ml syringe to a SepPak C18 cartridge, which had been preconditioned by washing with 8 ml of 95% ethanol, 8 ml of 70% ethanol, and 20 ml of water. After sample application, the cartridge was washed with 2×9 ml of water, followed by an additional 2 ml portion of water, and adsorbed radioactive material was then eluted with 3×4 ml of 70% ethanol. Typically, no significant radioactivity was found in the last water wash, and most of the bound radioactive material was found in the first ethanol eluate.
Gel electrophoresis and autoradiography. SDS-PAGE was carried out with slight modification of Laemmli (Laemmli, U. K., Nature, 227:680-685 (1970)). A Hoefer vertical slab gel electrophoresis unit (Hoefer Scientific Instruments, San Francisco, Calif.) was used for casting and electrophoresing with a 10% (w/v) acrylamide separating gel and a 4.5% (w/v) acrylamide stacking gel. Reaction mixtures, with total volumes of 75 μl, containing 0.15 μCi (0.26 μM) UDP-[^3 H] glucose, 10 ng of affinity purified enzyme (intact or heat denatured), in the absence and presence of increasing concentrations of DBM were incubated at 37° C. for 60 min. The reaction was terminated by addition of 5 μl of water and 20 μl of sample reducing buffer (5× concentrated) to give final concentrations of 40 mM Tris-Cl, pH 6.8, 1.5% (w/v) SDS, 6% (v/v) glycerol, 100 mM DTT and 0.002% (w/v) bromophenol blue and heated to 100° C. for 3 min. The supernatant was applied to the gel and electrophoresed at 7.5 mA for 16 hours. […]

[1] = target: T2, Rabbit muscle glycogen synthase (Oryctolagus cuniculus, UniProt P13834); test: Glycogen synthase assay: glucose transfer from UDP-glucose to acceptor; type: biochemical; settings: for rank as glucose acceptor for glycogen synthase: octyl-, dodecyl- and tetradecyl-maltosides compared, with G-6-P
T2 construct: purchased Sigma Chemical Co; host or cells: rabbit muscle
T2 sequence (P13834 1-735): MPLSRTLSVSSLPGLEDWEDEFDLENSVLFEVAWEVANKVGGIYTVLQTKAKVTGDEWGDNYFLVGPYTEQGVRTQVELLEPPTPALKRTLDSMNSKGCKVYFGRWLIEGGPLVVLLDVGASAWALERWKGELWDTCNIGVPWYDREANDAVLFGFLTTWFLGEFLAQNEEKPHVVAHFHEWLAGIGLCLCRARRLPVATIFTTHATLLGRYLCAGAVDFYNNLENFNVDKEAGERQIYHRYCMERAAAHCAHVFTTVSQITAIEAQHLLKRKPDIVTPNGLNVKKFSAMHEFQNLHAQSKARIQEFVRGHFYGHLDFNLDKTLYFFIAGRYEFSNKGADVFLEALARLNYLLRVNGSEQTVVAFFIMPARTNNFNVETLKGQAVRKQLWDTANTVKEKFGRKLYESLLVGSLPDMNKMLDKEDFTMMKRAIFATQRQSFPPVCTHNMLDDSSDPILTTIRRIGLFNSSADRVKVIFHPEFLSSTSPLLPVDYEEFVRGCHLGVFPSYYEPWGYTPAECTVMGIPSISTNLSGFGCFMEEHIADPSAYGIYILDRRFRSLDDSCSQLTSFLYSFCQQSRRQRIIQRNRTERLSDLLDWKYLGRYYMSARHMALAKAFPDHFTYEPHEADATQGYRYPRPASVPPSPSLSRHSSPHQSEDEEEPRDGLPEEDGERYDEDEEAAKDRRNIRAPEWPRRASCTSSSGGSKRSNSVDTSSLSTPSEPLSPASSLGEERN
Method: Rabbit muscle glycogen synthase obtained from Sigma Chemical Co., (7.6 μg) was incubated with 0.45 μCi UDP-[^3 H]glucose (specific activity of 10.4 Ci/mmol), 1 mM UDP-glucose (glucose donor), 10 mM glucose-6-phosphate (the natural activator of glycogen synthase) and 1 mg glycogen (glucose acceptor) in 25 mM EDTA/5 mM DTT/100 mM glycine. NaOH buffer, pH 8.6 in a total volume of 100 μl for 30-240 minutes at 37° C. At different time points, glycogen was precipitated from the reaction mixtures with ethanol and the precipitate washed to remove any unincorporated radiolabel. The glycogen precipitate was then solubilized and counted in a liquid scintillation counter to quantitate the amount of [^3 H]glucose incorporated into glycogen.
Results. When DBM (0.5 mM) replaces glycogen as the glucose acceptor in the incubation mixture, a linear transfer of glucose to DBM with time is seen up to 4 hours, with the glucose transfer amounting to about 20% of the maximal value seen with glycogen (using the SepPak C18 assay).
When glycogen synthase was incubated for 24 hours with G-6-P, UDP-[^3 H]glucose and 0.5 mM DBM, several products of glucose transfer to DBM could be visualized following separation by thin layer chromatography and autoradiography. These products corresponded to the dodecyl-maltotrioside,-tetraoside, -pentaoside, -hexaoside, -heptaoside and higher oligosaccharide derivatives of DBM. […] Therefore, DBM and other suitable glycosides can serve as glucose acceptors for both glycogen synthase and glycogenin to promote glucose disposal in conditions such as hyperglycemia and diabetes mellitus. Providing an abundance of acceptor substrates in tissues, such as liver, which has a smaller number of extremely large glycogen molecules can alleviate the problem of excessive glycogen deposition in the glycogen storage diseases by promoting glucose disposal into more readily handled smaller glucose polymers built on DBM or other glycosides.

- inhibition of transfer of [3H]glucose to DBM by glycogenin (glycogenin; listed as CDP): dose-dependent inhibition
Molecule: Nc1ccn([C@@H]2O[C@H](COP(=O)(O)OP(=O)(O)O)[C@@H](O)[C@H]2O)c(=O)n1 [Cytidine 5'-diphosphate, reference compound]
- inhibition of transfer of [3H]glucose to DBM by glycogenin (glycogenin): inhibited the transfer of [^3 H]glucose to DBM by glycogenin in a dose dependent manner

- glucose transfer relative to maximal value seen with glycogen ([1]; 0.5 mM acceptor replacing glycogen, up to 4 hours, SepPak C18 assay): about 20%
- acceptor concentration giving near-maximal glycogen synthase activity ([1]; 0.1 to 10 mM acceptor, 60 min incubation): less than 0.5 mM
- length of acceptor-linked oligosaccharide products formed by glycogen synthase ([1]; 24 hours with G-6-P, UDP-[3H]glucose, 0.5 mM acceptor, TLC and autoradiography): greater than seven glucose residues
- xylose acceptor for glycogenin (product formed) (glycogenin; UDP-[3H]xylose as donor substrate): DBM-xylose was formed
- glucose acceptor activity of DBM relative to octyl-β-D-maltoside (glycogenin; comparator octyl-β-D-maltoside): four times better
- glucose acceptor activity of DBM relative to tetradecyl-β-D-maltoside (glycogenin; comparator tetradecyl-β-D-maltoside): twice as active
Molecule: CCCCCCCCCCCCO[C@@H]1O[C@H](CO)[C@@H](O[C@H]2O[C@H](CO)[C@@H](O)[C@H](O)[C@H]2O)[C@H](O)[C@H]1O [DBM, dodecyl-β-D-maltoside]
- activity as glucose acceptor substrate for glycogenin (glycogenin): dose-dependent fashion; also recorded: best acceptor for glucose

- activity as glucose acceptor substrate for glycogenin (glycogenin): effective glucose acceptor
Molecule: CCCCCCCCO[C@H]1O[C@H](CO)[C@@H](O)[C@H](O)[C@H]1O [Octyl-α-D-glucoside]

Molecule: CCCCCCCCCCO[C@@H]1O[C@H](CO)[C@@H](O[C@H]2O[C@H](CO)[C@@H](O)[C@H](O)[C@H]2O)[C@H](O)[C@H]1O [decyl-β-D-maltoside]
- activity as glucose acceptor substrate for glycogenin (glycogenin): capable of serving as acceptor substrates

- activity as glucose acceptor substrate for glycogenin (glycogenin): activities are low
Molecule: CCCCCCCCO[C@@H]1O[C@H](CO)[C@@H](O)[C@H](O)[C@H]1O [octyl-β-D-glucoside]

- rank as glucose acceptor for glycogen synthase [1]: best acceptor
Molecule: CCCCCCCCO[C@@H]1O[C@H](CO)[C@@H](O[C@H]2O[C@H](CO)[C@@H](O)[C@H](O)[C@H]2O)[C@H](O)[C@H]1O [octyl-β-D-maltoside]
- activity as glucose acceptor substrate for glycogenin (glycogenin): capable of serving as acceptor substrates

Molecule: CCCCCCCCS[C@@H]1O[C@H](CO)[C@@H](O)[C@H](O)[C@H]1O [octyl-β-D-thioglucoside]
- activity as glucose acceptor substrate for glycogenin (glycogenin): more active as a glucose acceptor than octyl-β-D-glucoside

- rank as glucose acceptor for glycogen synthase [1]: followed by DBM and tetradecylmaltoside
Molecule: CCCCCCCCCCCCCCO[C@@H]1O[C@H](CO)[C@@H](O[C@H]2O[C@H](CO)[C@@H](O)[C@H](O)[C@H]2O)[C@H](O)[C@H]1O [tetradecyl-β-D-maltoside]
- activity as glucose acceptor substrate for glycogenin (glycogenin): capable of serving as acceptor substrates

- activity as glucose acceptor substrate for glycogenin (glycogenin): much lower activity
Molecule: dodecyl-β-D-sucrose
